Reference: patent publication US20090196930A1, “AEROSOLIZED NITRITE AND NITRIC OXIDE -DONATING COMPOUNDS AND USES THEREOF” (Aires Pharmaceuticals, Inc., priority 2007, published 2009)
Like-named read-outs stand apart in the source and are kept apart here.

Legend:
in vivo [1] = settings: rat, plasma
Experimental: Rats (n=3-4/group, ˜400 gm) were anesthetized with Isoflorane and the dry powder was insufflated intratracheally using a Penn-Century Insufflator (model DP-4: Philadelphia, Pa.). Blood was collected in heparinized tubes just prior to dosing, 5, 15, 30 and 60 minutes after dosing, immediately put on wet ice and then centrifuged at 13,000 rpm in a microcentrifuge for 45 sec. Plasma was harvested and frozen at −80° C. until analysis.

beagle dogs = test: 7-day inhalation dose range finding toxicology, dog; format: in vivo
Experimental: Results & Discussion (Dogs). […] Dogs were exposed to either vehicle (citric acid/saccharin/sodium phosphate buffer), or Formulation I Inhalation Solution prepared in identical vehicle to achieve target doses of 2, 10 or 44 mg/kg/day for 7 days (Table 21). Administered doses were 2, 12 and 54 mg/kg/day. […] Methemoglobin levels in blood increased appreciably in the high-dose group and minimally above basal levels in the mid-dose group (Table 23). Gross necropsies of the treated groups were in general similar to controls which included the presence of small red foci in the lung area, were few in nature and not associated with a dose responsive test-article relationship. Histopathology included mild focal pneumonia with minimal to mild focal peribronchiolar/perivascular mononuclear cell infiltrate and minimal to mild focal alveolar mixed cell infiltrate in the lungs of both the vehicle and high dose groups (low- and mid-dose groups not examined). M/E ratios were decreased in high-dose group males. […] Therefore, based on the transient changes during this 7 day study, an NOAEL of 12 mg/kg/day was established.

[2] = tested on: hypoxia-induced pulmonary hypertension; settings: cited from earlier work
[3] = Experimental: High concentrations permit reduced administration times (important for patient compliance), but suffer in that their associated osmolality and intense taste may mitigate this advantage. […] Nebulized solutions were inhaled to a shallow throat level and analyzed for: taste (saltiness), throat irritation, and sore throat. […] Sodium chloride is also considered in the art as helpful to alleviate cough. Therefore, this was also tested.
Summary. […] Finally, because viscosity and surface tension can be important contributors to optimal I-neb (Respironics, Inc., Murrysville, Pa.), Aerogen Aeroneb Go (Aerogen, Inc., Galway, Ireland) or other vibrating mesh nebulizer performance, potential formulations were screened in these devices to measure the effect of formulation on device output rate and aerosol particle size.

[4] = tested on: monocrotaline-induced pulmonary hypertension; settings: for RV:LV + S: MCT 50 mg/kg sc, three times per week for four weeks
[5] = tested on: monocrotaline-induced pulmonary hypertension; test: Monocrotaline model of pulmonary hypertension, inhaled nebulized liquid sodium nitrite; settings: rat, 5 μg/kg liquid aerosol
in vivo [6] = settings: male, Sprague-Dawley, rat, plasma, 10 mg/kg; for half-life: T1/2, rat
Sprague-Dawley rats = test: 7-day inhalation dose range finding toxicology, rat
Experimental: Formulations. […] The formulations defined below were titrated by nebulization time to achieve the dose levels define in Table 21.
Results & Discussion (Rats). A 7-Day range-finding study with nebulized Formulation I Inhalation Solution was performed via inhalation through the nose of male and female Sprague-Dawley rats.

[7] = tested on: normal, healthy volunteers; settings: human, device loaded sodium nitrite
Experimental: Vial 3 contained 0.1 mM sodium phosphate only. In the preliminary dose escalation to the maximum tolerated dose (MTD), immediately prior to administration, an equal portion of Vial 1 and Vial 2 were admixed and then diluted with Vial 3 contents as appropriate to achieve lower concentration dosing solutions for the dose-escalation protocol. Following establishment of the Vial 1+Vial 2 admixed test material MTD, additional dosing cohorts of 3 subjects were enrolled at the Vial 1+Vial 2 MTD, using Vial 3-diluted Vial 1 contents only.
Each subject also received vehicle control. The nebulizer used for this study was the Aerogen Idehaler. The Aerogen Idehaler is a combination of two units. The nebulization head is the Aeroneb® Solo (Aerogen, Galway, Ireland) and the aerosol-reservoir attachment Idehaler™ (Diffusion Technique Francais, Saint Etienne, France).

[8] = inhaled or intranasal, 90 ug/kg
[9] = inhaled or intranasal, 700 ug/kg
[10] = inhaled or intranasal, IT (dry powder, normalized to 10 mg/kg)
[11] = inhaled or intranasal, IT (liquid, 10 mg/kg)
[12] = 101 mg/kg/day inhaled (dose lowered after day 1)
[13] = high dose group after lowering of dose, printed (76)

## O=NO [sodium nitrite]
In vivo [1]; [8]
  AUC: 15.8 ng·h/mL
  Cmax: 1.8 µM
  Tmax: 5 min
  half-life: 4 min
In vivo [1]; [9]
  AUC: 292 ng·h/mL
  Cmax: 25.8 µM
  Tmax: 5 min
  half-life: 10 min
In vivo [1]; other: intratracheal insufflation of dry powder, 10 ug/kg
  Cmax: ~0.2 µM
Beagle dogs; 2 mg/kg/day inhaled
  Mortality (%) Female: 0%
  Mortality (%) Male: 0%
  Peak MetHgb (%) On Day 1 Female: 0.35 ± 0.4%
  Peak MetHgb (%) On Day 1 Male: 0.2 ± 0.1%
  Peak MetHgb (%) On Day 7 Female: 0.2 ± 0.0%
  Peak MetHgb (%) On Day 7 Male: 0.2 ± 0.0%
Beagle dogs; 12 mg/kg/day inhaled
  Mortality (%) Female: 0%
  Mortality (%) Male: 0%
  Peak MetHgb (%) On Day 1 Female: 3.4 ± 1.3%
  Peak MetHgb (%) On Day 1 Male: 2.6 ± 0.5%
  Peak MetHgb (%) On Day 7 Female: 1.6 ± 0.2%
  Peak MetHgb (%) On Day 7 Male: 2.1 ± 0.5%
Beagle dogs; 54 mg/kg/day inhaled
  Mortality (%) Female: 0%
  Mortality (%) Male: 0%
  Peak MetHgb (%) On Day 1 Female: 19 ± 0.5%
  Peak MetHgb (%) On Day 1 Male: 16 ± 5.2%
  Peak MetHgb (%) On Day 7 Female: 17 ± 2.6%
  Peak MetHgb (%) On Day 7 Male: 16 ± 3.2%
Beagle dogs; Group 2 Low Dose
  % of particles < 3 μm: 86.2%
  MMAD: 1.2 μm
Beagle dogs; Group 3 Mid Dose
  % of particles < 3 μm: 73.9%
  MMAD: 1.7 μm
Beagle dogs; Group 4 High Dose
  % of particles < 3 μm: 73.3%
  MMAD: 1.9 μm
[2]; after 20 minutes inhalation
  NO in expired air, peak: approximately 15 ppb
[2]; newborn lambs, inhaled nitrite 15 mg/minute
  reduction in hypoxia-induced pulmonary hypertension compared with saline nebulization: approximately 65%
[2]; newborn lambs
  minimal effective dose: 1.5 mg/min
  time reduction in PAP was maintained after cessation of inhalation: at least 1 hour
[3]; 75 mg/mL sodium nitrite, 1.56 mM citric acid, […] sodium saccharin, pH 5.41 admixed dosing solution
  level of nitric oxide produced: ~200 parts per billion
[3]; aqueous sodium nitrite titrated with citric acid
  nitric oxide produced and released: ~200 parts per billion
[3]; citric acid, pH ~5.5, 1:256 molar ratio ascorbic acid to nitrite
  nitric oxide relative to same formulation lacking ascorbic acid: ~4 fold
[3]; nitrite:ascorbic acid 256:1 mixture, Aeroneb Go Lab
  nitric oxide produced and released upon vibrating mesh nebulization: ~800 ppb
[3]; same dosing solution in the absence of citric acid
  level of nitric oxide produced: ~150 parts per billion
[3]; same formulation with ascorbic acid
  level of nitric oxide produced: ~800 parts per billion
[4]; dry powder 1 μg/kg intratracheal
  RV:LV + S: 0.363 ± 0.029
[4]; dry powder 10 μg/kg intratracheal
  RV:LV + S: 0.328 ± 0.025
[4]; high dose (10 μg/kg), p<0.05
  decrease of RV:LV+S: up to 48%
Isolated rabbit lungs; 16.7 mg/mL sodium nitrite in phosphate buffer or phosphate/citric acid buffer, 5 min nebulization
  hypoxia-induced elevated PAP: significantly reduced
Isolated rabbit lungs; both sodium nitrite preparations (phosphate buffer; citric acid/phosphate buffer)
  expired nitric oxide compared to control: significantly increased
Isolated rabbit lungs; mg sodium nitrite (2.8 mg nitrite)
  lung-delivered dose up to which lung weights (edema) were stable: up to 4.2 mg
Isolated rabbit lungs; sodium nitrite in phosphate buffer or citric acid/phosphate buffer, nebulized during second hypoxic challenge (3% oxygen), p<0.05
  decrease of PAP compared with pre-drug hypoxic challenge: over 50%
Isolated rabbit lungs; sodium nitrite in phosphate buffer, nebulized during third hypoxic challenge
  half life of effect on hypoxia-induced PAP: ~10 min
[5]
  plasma nitrite, extrapolated: ~0.1 µM
In vivo [6]; [10]
  AUC: 4270 ng·h/mL
  Cmax: 172 µM
  half-life: 19 min
  Tmax: 5 min
In vivo [6]; [11]
  AUC: 2820 ng·h/mL
  Cmax: 164 µM
  half-life: 10 min
  Tmax: 15 min
In vivo [6]; iv, IV (10 mg/kg)
  AUC: 8120 ng·h/mL
  Cmax: 312 µM
  half-life: 20 min
  Tmax: 5 min
Sprague-Dawley rats; 4 mg/kg/day inhaled
  Mortality (%) Female: 0%
  Mortality (%) Male: 0%
  Peak MetHgb (%) On Day 1 Female: 1.0 ± 0.1%
  Peak MetHgb (%) On Day 1 Male: 1.0 ± 0.0%
  Peak MetHgb (%) On Day 7 Female: 1.3 ± 0.1%
  Peak MetHgb (%) On Day 7 Male: 1.0 ± 0.0%
Sprague-Dawley rats; 18 mg/kg/day inhaled
  Mortality (%) Female: 0%
  Mortality (%) Male: 0%
  Peak MetHgb (%) On Day 1 Female: 4.5 ± 1.2%
  Peak MetHgb (%) On Day 1 Male: 3.4 ± 0.3%
  Peak MetHgb (%) On Day 7 Female: 3.8 ± 0.6%
  Peak MetHgb (%) On Day 7 Male: 2.3 ± 0.2%
Sprague-Dawley rats; 101 mg/kg/day inhaled
  Peak MetHgb (%) On Day 1 Female: 50 ± 3.0%
  Peak MetHgb (%) On Day 1 Male: 41 ± 3.3%
Sprague-Dawley rats; [12]
  Mortality (%) Female: 30%
  Mortality (%) Male: 0%
Sprague-Dawley rats; Group 2 Low Dose
  % of particles < 3 μm: 97.6%
  MMAD: 1.0 μm
Sprague-Dawley rats; Group 3 Mid Dose
  % of particles < 3 μm: 87.6%
  MMAD: 1.4 μm
Sprague-Dawley rats; Group 4 High Dose
  % of particles < 3 μm: 78.5%
  MMAD: 1.7 μm
Sprague-Dawley rats; [13]
  Peak MetHgb (%) On Day 7 Female: 36 ± 3.0 %
  Peak MetHgb (%) On Day 7 Male: 16 ± 4.7 %
[7]
  well tolerated doses: less than or equal to 125 mg
